# Measurements taken from patent publication US10966995B2, “Use of secoisolariciresinol diglucosides (SDGS) and related compounds for protection against radiation and chemical damage” (THE TRUSTEES OF THE UNIVERSITY OF PENNSYLVANIA, priority 2014, dated 2021).
# What was measured:
# Plasmid DNA (pBR322) = assay: Plasmid DNA relaxation assay after γ-radiation; format: biochemical; conditions: for EC50: 25 Gy γ radiation, 25-250 μM tested, read-out: EC50 (effective concentration needed to prevent 50% of plasmid relaxation); for SC and OC forms of plasmid DNA: 25 Gy, 25, 50, 100 and 250 μM
# Experimental: (§1) Plasmid DNA (pBR322) or calf thymus DNA samples with or without varying concentrations of SDG (R,R), SDG (S,S) and SDG (commercial) were exposed to γ-radiation with a Mark 1 cesium (Cs-137) irradiator (J. L. Shepherd, San Fernando, Calif.) at a dose rate of 1.7 Gy/min in phosphate buffered saline, pH 7.4 (PBS).
# The effect of test compounds on radiation-induced strand breaks and supercoil (SC) to open coil (OC) conversion was determined using plasmid DNA (pBR322) (Life Technologies, Carlsbad, Calif.). Plasmid DNA (500 ng) in PBS (pH 7.4) was mixed with various concentrations (25-250 μM) of SDG (R,R), SDG (S,S) and SDG (commercial) and irradiated at 25 Gy in PBS. At 30 min post radiation exposure, samples were mixed with loading dye and subjected to agarose (1%) gel electrophoresis in TAE buffer (pH, 8.3) at 100 V. The gel was stained with ethidium bromide (0.5 μg/ml) for 40 min, washed for 20 min and then visualized on a UV trans-illuminator (Bio-Rad, Hercules, Calif.). The captured gel images were scanned and the density of the open coiled (OC) and super coiled (SC) plasmid DNA bands determined by Gel-doc image analyzer program. The density of the SC and OC plasmid DNA was expressed as % of the total density (OC+SC).
# calf thymus DNA [1] = assay: Radiation-induced calf thymus DNA fragmentation assay; format: biochemical; conditions: for Radioprotection in calf thymus DNA fragmentation assay at low concentrations / High mol. wt. DNA form after radiation exposure / Radioprotective properties of SDG and metabolites compared: 50 Gy; for Radioprotection in calf thymus DNA fragmentation assay at low concentrations: 0.5-10 μM; for High mol. wt. DNA form after radiation exposure: 25, 50, 100 and 250 μM; for Radiation-induced generation of low mol. wt. fragments: at the concentration of 5 (unit not given); for Radiation induced generation of low mol. wt. fragments: at the lowest concentration tested; for Radioprotective properties of SDG and metabolites compared: 10 μM of each agent
# Experimental: as §1
# The effect of test compounds on radiation-induced strand breaks in DNA was determined using calf thymus DNA (Sigma, St. Louis, Mo.). DNA (500 ng) in PBS (pH 7.4) was mixed with varying concentrations (25-250 μM) of SDG (R,R), SDG (S,S) and SDG (commercial) and irradiated at 50 Gy for 30 min. A second series of experiments were performed at varying concentrations ranging from 0.5-10 μM. Samples were mixed with loading dye and subjected to agarose (1%) gel electrophoresis in TAE buffer (pH, 8.3) at 100 V. The gel was stained with ethidium bromide (0.5 μg/ml) for 40 min, washed for 20 min and then visualized on a UV trans-illuminator (Bio-Rad, Hercules, Calif.). The captured gel images were scanned and the density of the calf thymus DNA fragments was determined by Gel-Pro image analyzer program (Media Cybernetics, Silver Spring, Md.). The density of the low mol. wt (<6,000 bps) and the high mol. wt (>6,000 bps) fragments of calf thymus DNA was expressed as % of the total density (low mol wt.+high mol. wt.).
# [2] = Hypochlorite scavenging with APF/HPF fluorescent probes (sodium hypochlorite); conditions: 0.5 μM; similar to silibinin
# Experimental: The fluorescence of ROS probes APF and HPF in PBS was measured at excitation/emission at 490 nm/515 nm in presence of hypochlorite or after γ-radiation exposure. Data is expressed as relative fluorescence units (RFU).
# calf thymus DNA [3] = assay: Hypochlorite-induced damage to calf thymus DNA; format: biochemical; conditions: 0.5 mM hypochlorite; test agents 1.0 μM
# Experimental: Calf thymus or plasmid DNA was incubated with hypochlorite for 2 hrs at 37° C. DNA samples were subjected to agarose (1%) gel electrophoresis and analyzed.
# human epithelial cells = assay: BaP-induced DNA adduct formation; format: cell-based; conditions: given alone or in combination
# Text: Similarly, SDG prevents genotoxic stress in human epithelial cells exposed to BaP. Exposure of cells to a potent carcinogen such as BaP, induces genotoxic stress as indicated by increased levels of p53 protein (FIG. 25). […] SDG also prevents oxidative DNA damages in human epithelial cells exposed to BaP. Exposure of cells to a potent carcinogen such as BaP, induces oxidative DNA damage as indicated by increased levels of gamma-H2AX, a marker for double-stranded DNA breaks (FIG. 26). […] Furthermore, SDG prevents DNA adduct formation in human epithelial cells exposed to BaP. Exposure of cells to a potent carcinogen such as BaP, induces the formation of DNA adducts (FIG. 27). DNA adducts are pieces of DNA covalently linked to a carcinogen and is directly linked to the development of malignancy. The DNA adduct levels is decreased by the presence of SDG or its metabolites ED and EL given alone or in combination.
SMILES,EC50 (Plasmid DNA (pBR322)),High mol. wt. DNA form after radiation exposure (calf thymus DNA [1]),ClO^− scavenging potency [2],Radioprotective properties of SDG and metabolites compared (calf thymus DNA [1]),other results
"COc1cc(C[C@H](CO[C@@H]2O[C@H](CO)[C@@H](O)[C@H](O)[C@H]2O)[C@@H](CO[C@@H]2O[C@H](CO)[C@@H](O)[C@H](O)[C@H]2O)Cc2ccc(O)c(OC)c2)ccc1O [SDG (S,S), secoisolariciresinol diglucoside]",142 µM,the proportion of the high mol. wt. DNA form increased significantly,comparable potency,–,SC and OC forms of plasmid DNA (Plasmid DNA (pBR322)): the proportion of the SC form increased and the density of OC form decreased significantly; Radioprotection in calf thymus DNA fragmentation assay at low concentrations (calf thymus DNA [1]): strong radioprotection characteristics even at low concentrations; Radiation-induced generation of low mol. wt. fragments (calf thymus DNA [1]): completely prevented; Radiation induced generation of low mol. wt. fragments (calf thymus DNA [1]): completely prevented
"COc1cc(C[C@@H](CO[C@@H]2O[C@H](CO)[C@@H](O)[C@H](O)[C@H]2O)[C@H](CO[C@@H]2O[C@H](CO)[C@@H](O)[C@H](O)[C@H]2O)Cc2ccc(O)c(OC)c2)ccc1O [SDG (commercial), Secoisolariciresinol Diglucoside]",98.4 µM,radioprotective properties,comparable potency,–,–
O=c1c(O)c(-c2ccc(O)c(O)c2)oc2cc(O)cc(O)c12 [quercetin],–,–,–,–,Hypochlorite-induced damage to genomic DNA (calf thymus DNA [3]): comparable
"COc1cc(C[C@@H](CO[C@@H]2O[C@H](CO)[C@@H](O)[C@H](O)[C@H]2O)[C@H](CO[C@@H]2O[C@H](CO)[C@@H](O)[C@H](O)[C@H]2O)Cc2ccc(O)c(OC)c2)ccc1O [SDG (R,R), secoisolariciresinol diglucoside]",128 µM,radioprotective properties,comparable potency,–,SC and OC forms of plasmid DNA (Plasmid DNA (pBR322)): prevented the radiation-induced damage to plasmid DNA in a concentration-dependent manner; Radioprotection in calf thymus DNA fragmentation assay at low concentrations (calf thymus DNA [1]): strong radioprotection characteristics even at low concentrations; Radiation-induced generation of low mol. wt. fragments (calf thymus DNA [1]): completely prevented; Radiation induced generation of low mol. wt. fragments (calf thymus DNA [1]): completely prevented
"OC[C@H](Cc1cccc(O)c1)[C@H](CO)Cc1cccc(O)c1 [ED, enterodiol]",–,–,–,equipotent,DNA adduct levels (human epithelial cells): decreased
"COc1cc(CC(CO)C(CO)Cc2ccc(O)c(OC)c2)ccc1O (centres unmarked) [SECO, 2,3-bis (3-methoxy-4-hydroxybenzyl) butane-1,4-diol]",–,–,–,equipotent,–
"O=C1OC[C@H](Cc2cccc(O)c2)[C@H]1Cc1cccc(O)c1 [EL, enterolactone]",–,–,–,equipotent,DNA adduct levels (human epithelial cells): decreased
